Our source for the IC50 values is patent publication US12371454B2, “Cyclic peptide compound having Kras inhibitory action” (priority 2019, dated 2025).

SMILES strings stand for the structures. pIC50: −log10 of the molar value. Starred links: 1 amine or outer side, 2 acyl side, 3 side chain; linkers in the order of their positions; H or OH if unused. Positions of bridges follow the written chain, without caps; N, C: chain ends. Non-standard residues stand in square brackets, D forms with d. Residues, ends and D or L forms follow the SMILES beside them. *: point of attachment. hPhe(3-Cl-4-CF3) = N[C@@H](CCc1ccc(C(F)(F)F)c(Cl)c1)C(=O)O; hPhe(3-F,4-CF3) = N[C@@H](CCc1ccc(C(F)(F)F)c(F)c1)C(=O)O; NMePhe(4-CF3) = CN[C@@H](Cc1ccc(C(F)(F)F)cc1)C(=O)O; NMePhe(4-Cl) = CN[C@@H](Cc1ccc(Cl)cc1)C(=O)O; NMePhe(4-Me) = CN[C@@H](Cc1ccc(C)cc1)C(=O)O; NMePhe(2-Cl) = CN[C@@H](Cc1ccccc1Cl)C(=O)O; NMePhe(2-Me) = CN[C@@H](Cc1ccccc1C)C(=O)O; NMedβ3hAla = C[C@H](CC(=O)[*:2])N(C)[*:1]; NMeAla(cPent) = CN[C@@H](CC1CCCC1)C(=O)O; Phe(3-I) = N[C@@H](Cc1cccc(I)c1)C(=O)O; NMeCha = CN[C@@H](CC1CCCCC1)C(=O)O; Hyp = O=C(O)[C@@H]1C[C@@H](O)CN1; NMeChg = CN[C@H](C(=O)O)C1CCCCC1; NMeD = CN[C@@H](CC(=O)O)C(=O)O; NMeL = CN[C@@H](CC(C)C)C(=O)O; αMeL = CC(C)C[C@](C)(N)C(=O)O; NMeV = CN[C@H](C(=O)O)C(C)C; d(β3hA) = C[C@@H](N)CC(=O)O; NMeA = CN[C@@H](C)C(=O)O; NMeAib = CNC(C)(C)C(=O)O; Nle = CCCC[C@H](N)C(=O)O; Piperidide = C1CCN(*)CC1; Pyrrolidide = C1CCN(*)C1; Ac5c = NC1(C(=O)O)CCCC1; Aze = O=C(O)[C@@H]1CCN1; Ac4c = NC1(C(=O)O)CCC1; Sar = CNCC(=O)O

The target in the experiment is T1, Kras and SOS1 (biotin-tagged human Kras loaded with GDP, His-tagged human SOS1) (Homo sapiens, UniProt P01116, G12D).
T1 construct: made in house; host or cells: E. coli (stated for Kras only)
As to the kind of experiment: Protein-protein interaction inhibition between Kras and SOS1 (KrasGl2D-SOS PPI) using AlphaScreen. It is filed as binding. The note with it: AlphaScreen; biotin-tagged human Kras loaded with GDP, His-tagged human SOS1; read-out: KRAS G12D-SOS PPI IC50. An outline of the steps: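 Binding between SOS1 and Kras is detected as bead-proximity luminescence: illuminate Ni-conjugated donors (680 nm), collect 520-620 nm emission from streptavidin-conjugated acceptors; Kras carries biotin and GDP loaded after purification, SOS1 carries a His tag.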
In general terms: Bead proximity is the source of the signal in Alpha formats.

T1 sequence (P01116 1-188 isoform P01116-2 G12D): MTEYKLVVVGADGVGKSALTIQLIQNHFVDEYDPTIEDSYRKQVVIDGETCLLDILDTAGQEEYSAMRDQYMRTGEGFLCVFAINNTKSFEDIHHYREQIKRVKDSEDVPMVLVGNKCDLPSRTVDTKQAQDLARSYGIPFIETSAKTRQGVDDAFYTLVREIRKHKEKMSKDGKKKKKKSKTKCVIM

As to `CC[C@H](C)[C@@H]1NC(=O)[C@H](CC(C)C)N(C)C(=O)C[C@@H](C)N(C)C(=O)[C@H](CC(C)C)NC(=O)C(C)(C)N(C)C(=O)[C@H](CC(C)C)NC(=O)[C@H](CCc2ccc(C(F)(F)F)c(F)c2)NC(=O)CN(C)C(=O)[C@H](CC2CCCCC2)N(C)C(=O)[C@@H]2CCN2C(=O)[C@H](C)N(C)C1=O` [Compound 686] (cyclo([Aze][NMeCha][Sar][hPhe(3-F,4-CF3)]L[NMeAib]L[NMedβ3hAla][NMeL]I[NMeA])), the pIC50 is 6.77.
In the case of `CC[C@H](C)[C@@H]1NC(=O)[C@H](CC(C)C)N(C)C(=O)C[C@@H](C(=O)N2CCCCC2)N(C)C(=O)[C@H](C2CCCCC2)N(C)C(=O)C2(CCCC2)NC(=O)[C@H](CC(=O)O)N(C)C(=O)[C@H](CCc2ccc(C(F)(F)F)c(Cl)c2)NC(=O)CN(C)C(=O)[C@H](CC2CCCCC2)N(C)C(=O)CN(C)C(=O)CN(C)C1=O` [Compound 688] ([NMeL]I[Sar][Sar][NMeCha][Sar][hPhe(3-Cl-4-CF3)][NMeD][Ac5c][NMeChg][NMeD]-Piperidide; lactam N-11) it was 8.64; in that of `CCCC[C@@H]1NC(=O)[C@H](CCc2ccc(C(F)(F)F)c(Cl)c2)NC(=O)CN(C)C(=O)[C@H](CC2CCCC2)N(C)C(=O)[C@@H]2CCN2C(=O)[C@H](C)N(C)C(=O)[C@H]([C@@H](C)CC)NC(=O)[C@H](CC(C)C)N(C)C(=O)C[C@@H](C(=O)N2CCCCC2)N(C)C(=O)[C@H](CC(C)C)NC(=O)C(C)(C)N(C)C1=O` [Compound 691] ([NMeL]I[NMeA][Aze][NMeAla(cPent)][Sar][hPhe(3-Cl-4-CF3)][Nle][NMeAib]L[NMeD]-Piperidide; lactam N-11), 8.15; in that of `CCCC[C@@H]1NC(=O)[C@H](Cc2cccc(I)c2)NC(=O)CN(C)C(=O)[C@H](Cc2ccc(Cl)cc2)N(C)C(=O)CN(C)C(=O)CN(C)C(=O)[C@H]([C@@H](C)CC)NC(=O)[C@H](CC(C)C)N(C)C(=O)C[C@@H](C(=O)N2CCCCC2)N(C)C(=O)[C@H](CC(C)C)NC(=O)[C@H](Cc2ccccc2C)N(C)C1=O` [Compound 696] ([NMeL]I[Sar][Sar][NMePhe(4-Cl)][Sar][Phe(3-I)][Nle][NMePhe(2-Me)]L[NMeD]-Piperidide; lactam N-11), 7.40.
In the case of `CC[C@H](C)[C@@H]1NC(=O)[C@H](C)N(C)C(=O)C[C@@H](C)NC(=O)[C@H](C(C)C)N(C)C(=O)C2(CCCC2)NC(=O)[C@@H]2CCCN2C(=O)[C@H](CCc2ccc(C(F)(F)F)c(Cl)c2)NC(=O)CN(C)C(=O)[C@H](CC2CCCCC2)N(C)C(=O)CN(C)C(=O)CN(C)C1=O` [Compound 697] (cyclo([Ac5c][NMeV][d(β3hA)][NMeA]I[Sar][Sar][NMeCha][Sar][hPhe(3-Cl-4-CF3)]P)) it was 7.92.
The figure for `CCO[C@@H]1C[C@H]2C(=O)NC3(CCC3)C(=O)N(C)[C@@H](C3CCCCC3)C(=O)N(C)[C@H](C)CC(=O)N(C)[C@@H](CC(C)C)C(=O)N[C@@H]([C@@H](C)CC)C(=O)N(C)[C@@H](C)C(=O)N3CC[C@H]3C(=O)N(C)[C@@H](Cc3ccc(C(F)(F)F)cc3)C(=O)N(C)CC(=O)N[C@@H](CCc3ccc(C(F)(F)F)c(Cl)c3)C(=O)N2C1` [Compound 698] (cyclo([Ac4c][NMeChg][NMedβ3hAla][NMeL]I[NMeA][Aze][NMePhe(4-CF3)][Sar][hPhe(3-Cl-4-CF3)][Hyp](Et))) is 7.64.
As for `CC[C@H](C)[C@@H]1NC(=O)[C@H](C)N(C)C(=O)C[C@@H](C(=O)N2CCCC2)N(C)C(=O)[C@H](C(C)C)N(C)C(=O)[C@@H](C)NC(=O)[C@H](Cc2ccccc2Cl)N(C)C(=O)[C@H](CCc2ccc(C(F)(F)F)c(Cl)c2)NC(=O)CN(C)C(=O)[C@H](CC2CCCCC2)N(C)C(=O)CN(C)C(=O)CN(C)C1=O` [Compound 702] ([NMeA]I[Sar][Sar][NMeCha][Sar][hPhe(3-Cl-4-CF3)][NMePhe(2-Cl)][dA][NMeV][NMeD]-Pyrrolidide; lactam N-11), the pIC50 was 6.89.
The figure for `CC[C@H](C)[C@@H]1NC(=O)[C@H](CC(C)C)N(C)C(=O)C[C@@H](C(=O)N2CCCCC2)N(C)C(=O)[C@H](CC(C)C)NC(=O)C(C)(C)N(C)C(=O)[C@H](Cc2ccc(OC)cc2)NC(=O)[C@H](Cc2cccc(I)c2)NC(=O)CN(C)C(=O)[C@H](Cc2ccc(C)cc2)N(C)C(=O)[C@@H]2CCN2C(=O)[C@H](C)N(C)C1=O` [Compound 703] ([NMeL]I[NMeA][Aze][NMePhe(4-Me)][Sar][Phe(3-I)]Y(Me)[NMeAib]L[NMeD]-Piperidide; lactam N-11) is 8.07.
On to `CC[C@H](C)[C@@H]1NC(=O)[C@H](CC(C)C)N(C)C(=O)C[C@@H](C)NC(=O)[C@H](C(C)C)N(C)C(=O)[C@](C)(CC(C)C)NC(=O)[C@@H]2CCCN2C(=O)[C@H](CCc2ccc(C(F)(F)F)c(Cl)c2)NC(=O)CN(C)C(=O)[C@H](CC2CCCCC2)N(C)C(=O)CN(C)C(=O)CN(C)C1=O` [Compound 705] (cyclo(I[Sar][Sar][NMeCha][Sar][hPhe(3-Cl-4-CF3)]P[αMeL][NMeV][d(β3hA)][NMeL])), for which the pIC50 was 6.44.

The term pIC50 denotes −log10 of the IC50, conventionally taken in molar units.
